According to patent US20150045387A1, “Bi-Aromatic And Tri-Aromatic Compounds As NADPH Oxidase 2 (Nox2) Inhibitors” (The University of Surrey, priority 2011, published 2015):

Experiments:
[1] = tested on: mouse microvascular endothelial cells (SVEC4-10); experiment: cell viability by trypan blue exclusion and viable cell number counting, SVEC4-10; type: cell-based; details: SVEC4-10, LMH001 5 and 10 μM, 24 h, trypan blue exclusion
Description: FIG. 7 is a graph showing no cytotoxicity of LMH001 on living mouse microvascular endothelial cells (SVEC4-10) and human liver hepatocyte cells (HepG2), assessed by trypan blue exclusion and viable cell number counting. Cells were cultured with LMH001 (5 and 10 μM) for 24 h. Cell viabilities of SVEC4-10 cells and HepG2 cells in the presence of LMH001 (5 and 10 μM) were expressed as % of alive cells compared to cells in the absence of LMH001 (control, 100%). Results are presented as mean±SD (n=3).
(§1) The mouse lymph node microvascular endothelial cell line (SVEC4-10) was from the American Type Culture Collection (CRL-2167) and grown in DMEM, containing 10% (v/v) heat inactivated foetal calf serum, 100 U/mL penicillin and […] streptomycin, in a humidified atmosphere at 37° C. with 5% CO2.
Cell viability and membrane integrity in the presence and absence of LMH001 were assessed using the trypan blue exclusion assay as described previously (15). Briefly, cells (1×10^6) were seeded onto 10 cm^2 culture dishes and allowed to adhere for 4 hours in 10% (v/v) FCS medium. […] At the time of experiment, cells were harvested by 0.25% Trypsin/EDTA, pelleted, resuspended in serum free medium and counted using a haemocytometer in the presence of trypan blue (0.4%) solution. The number of viable cells was calculated as a percentage of total cells.

[2] = tested on: human pulmonary endothelial cells (HPMEC); experiment: normal versus high glucose level-induced O2.- production, lucigenin-chemiluminescence; type: cell-based; details: LMH001 5 μM, 24 h in culture, NADPH 100 μM
Description: FIG. 11 is a graph showing the effects of LMH001 in culture on normal glucose level versus high glucose level-induced O2.^− production by human pulmonary endothelial cells (HPMEC). HPMEC were cultured in the medium with normal level of glucose (5 mM) or with high level of glucose (40 mM) in the presence or absence of LMH001 (5 μM) for 24 h. Cells were harvested and cell homogenates were used for measuring NADPH (100 μM)-dependent O2.^− production by lucigenin-chemiluminescence (n=3 experiments).
O2^− production by different cell types was measured using lucigenin (5 μM)-chemiluminescence. A microplate luminometer (LumiStar, BMG) was used, which allows the examination of 96 samples at the same time with kinetic reading facilities. […] Dark-adapted lucigenin (5 μM) was added into the well through an auto-dispenser located in the dark chamber just before reading. The light emission was recorded over a 60 minute period and expressed as arbitrary MLU measured by the illuminometer. Each experiment was performed in triplicate and the mean of 3 blank readings was subtracted from each corrected value for each reading. […]
O2^− production was also studied using total cell homogenate (for the endothelial cells and the fibroblasts). […] Soluble protein concentration was determined using a kit from Bio-Rad Laboratories Ltd. (Hertfordshire, U.K.). […]

SVEC4-10 cells = experiment: normal cell proliferation, MTS assay, SVEC4-10; type: cell-based, mouse; details: SVEC4-10, LMH001 up to 10 μM, 24 h
Description: (§2) A) SVEC4-10 cells and HepG2 cells were cultured in the presence or absence of LHM001 (0-10 μM) for 24 h and tested for cell proliferation using a MTS assay kit. B) HL-60 cells were cultured in the presence or absence of LMH001 (0-10 μM), and cell proliferation was examined at 6, 12 and 24 h of culture.
as §1
(§3) The ex vivo proliferative capabilities of isolated BMSC or cultured cells were analyzed using the MTS proliferation assay. BMSC were suspended in Dulbecco's modified Eagle's medium supplemented with 5% fetal bovine serum (Sigma), 100 U/mL penicillin and 100 μg/mL streptomycin, and plated in 1% gelatin coated 96-well plates at a density of 1×10^5 cells/well in triplicate. After 24 hours in culture medium containing LMH001 (0-10 μM), proliferation was assessed using the MTS (CellTiter 96 AQ; Promega, Madison, USA) assay according to the manufacturer's protocol. The absorbance at 490 nm was read using an ELISA plate reader (Perkin elmer), and the proliferation index calculated relative to the controls. The mean of 3 blank readings was subtracted from each corrected value.

HL-60 cells = experiment: normal cell proliferation, MTS assay, HL-60; type: cell-based, human; details: HL-60, LMH001 up to 10 μM, 6, 12 and 24 h of culture
Description: as §2
HL-60 is a human promyelocytic leukaemia cell line. The HL60 cells were grown in RPMI 1640 medium; containing 10% (v/v) heat inactivated foetal calf serum, 100 U/mL penicillin and […] streptomycin, in a humidified atmosphere at 37° C. with 5% CO2. HL60 cells were differentiated to the human neutrophils by culturing the cells in the culture medium in the presence of 1.25% v/v DMSO for 6 days before being used for the experiments.
as §3, with “BMSC were suspended in Dulbecco's modified Eagle's medium supplemented with 5% fetal bovine serum (Sigma), 100 U/mL penicillin and 100 μg/mL streptomycin, and plated in 1% gelatin coated 96-well plates at a density of 1×10^5 cells/well in triplicate.” left out

Structure (SMILES): O=C(OCc1cccc(O)c1O)c1ccc(O)c(CO)c1 [LMH001, (2,3,-dihydroxyphenyl)methyl 4-hydroxy-3-(hydroxymethyl)benzoate]
- cell viability (% of alive cells vs control) [1]: no significant difference
- cell O2.- production under normal glucose levels ([2]; glucose 5 mM): no significant effect
- high glucose level-induced O2.- production ([2]; glucose 40 mM): inhibited completely
- normal cell proliferation under physiological condition (SVEC4-10 cells): no significant effect
- normal cell proliferation under physiological condition (HL-60 cells): no significant effect
